Columns and labels:
[1] = biological target: T1, c-Kit(V654A) (Homo sapiens, UniProt P10721, V654A); experiment: c-Kit(V654A) assay (33P-ATP filter binding kinase assay); type: biochemical; conditions: recombinant human c-Kit aa 544-end V654A, ATP 200 μM
T1 construct: recombinant human c-Kit, amino acids 544-end containing the V654A mutation; GST (N)
Procedure, shortened: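 Radiometric filter-binding read-out: substrate 33P incorporation counted by scintillation after P30 filtermat washes in 75 mM phosphoric acid and methanol. Enzyme: N-GST recombinant human c-Kit aa 544-end carrying V654A.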

[2] = Determination of Efflux-Ratio (ER) in Caco-2 cells; conditions: human, Caco-2, pH 7.4
Description: Determination of Efflux-Ratio (ER) in Caco-2 Cells
The efflux ratio of the test compounds was determined in Caco-2 human epithelial colorectal adenocarcinoma cell line (TC7 clone) using calculation of apparent permeability (Papp). Cell monolayers were differentiated in vitro for 14 days before the experiment. Subsequently, the test compound (in HBSS pH 7.4 at 1 μM final concentration) was applied on the donor side while HBSS buffer (pH 7.4) was added to the receiver wells. […] The plate was then incubated in a 5% CO2 incubator (37° C., 100% humidity). At the end of the 2 hours incubation period, 50 μL sample was removed from both donor and receiver wells and diluted 1:1 with equal volumes of acetonitrile for LC-MS/MS analysis. The LC-MS/MS analysis used a one-point calibration method from a 1 μM standard solution diluted 1:1 with equal volume of acetonitrile (consistent to the test samples).
The data was used to calculate the apparent permeabilities of the compounds in both apical to basolateral (Papp,AB) and basolateral to apical (Papp,BA) directions at 1 μM concentration in duplicate. The Papp values were calculated from the concentrations in the donor and receiver compartments using the following formula:
Efflux ratio was calculated according to the following formula:

[3] = biological target: T2, GIST430/654 cell line expressing mutated constitutively active cKIT receptor tyrosine kinase (Δ560-576 deletion and V654A point mutation) (Homo sapiens, UniProt P10721, DEL560-576/V654A); experiment: Cellular cKIT autophosphorylation (phospho-Y307-cKIT, Luminex bead assay) in GIST430/654 cells; type: cell-based; conditions: compounds 45 min, read-out: GIST 430/654 IC50
T2 construct: endogenous in cells; host or cells: GIST430/654 cells
T2 sequence (P10721 with tags, fused parts or gaps DEL560-576/V654A): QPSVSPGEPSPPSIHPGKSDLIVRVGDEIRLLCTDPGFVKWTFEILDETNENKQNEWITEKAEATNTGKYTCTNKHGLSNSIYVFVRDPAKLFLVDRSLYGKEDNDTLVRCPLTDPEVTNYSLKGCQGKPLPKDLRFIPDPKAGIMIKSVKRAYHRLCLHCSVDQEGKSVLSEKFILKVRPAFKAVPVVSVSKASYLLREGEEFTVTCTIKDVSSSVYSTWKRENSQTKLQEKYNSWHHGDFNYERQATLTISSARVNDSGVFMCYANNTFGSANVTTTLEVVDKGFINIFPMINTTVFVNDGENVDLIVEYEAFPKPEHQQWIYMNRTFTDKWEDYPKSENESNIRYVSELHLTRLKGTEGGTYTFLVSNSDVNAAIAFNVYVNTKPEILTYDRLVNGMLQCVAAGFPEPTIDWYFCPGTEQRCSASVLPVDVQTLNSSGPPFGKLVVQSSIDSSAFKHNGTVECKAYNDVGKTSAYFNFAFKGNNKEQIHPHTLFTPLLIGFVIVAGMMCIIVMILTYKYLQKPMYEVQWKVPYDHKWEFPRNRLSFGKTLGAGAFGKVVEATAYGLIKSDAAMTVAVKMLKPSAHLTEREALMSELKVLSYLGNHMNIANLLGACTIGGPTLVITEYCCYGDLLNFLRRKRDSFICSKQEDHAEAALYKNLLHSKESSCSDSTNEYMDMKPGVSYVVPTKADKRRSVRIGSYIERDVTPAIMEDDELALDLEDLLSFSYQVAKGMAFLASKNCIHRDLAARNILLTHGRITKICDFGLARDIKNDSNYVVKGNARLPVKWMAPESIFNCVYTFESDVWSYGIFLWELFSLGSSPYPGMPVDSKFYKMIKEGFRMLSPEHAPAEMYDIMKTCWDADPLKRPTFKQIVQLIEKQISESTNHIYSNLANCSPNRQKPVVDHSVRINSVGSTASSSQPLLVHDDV
Procedure, shortened: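 GIST430 (Δ560-576) and imatinib-resistant GIST430/654 (plus V654A; grown with 100 nM imatinib) cells were plated in IMDM/15% FCS and treated next day with serially diluted compound for 45 min. Lysates were captured on anti-total-cKIT Luminex beads overnight at 4 °C and probed for phospho-Y307. IC50 was taken from percent of 0.3% DMSO control.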

T1 sequence (P10721 544-976 V654A): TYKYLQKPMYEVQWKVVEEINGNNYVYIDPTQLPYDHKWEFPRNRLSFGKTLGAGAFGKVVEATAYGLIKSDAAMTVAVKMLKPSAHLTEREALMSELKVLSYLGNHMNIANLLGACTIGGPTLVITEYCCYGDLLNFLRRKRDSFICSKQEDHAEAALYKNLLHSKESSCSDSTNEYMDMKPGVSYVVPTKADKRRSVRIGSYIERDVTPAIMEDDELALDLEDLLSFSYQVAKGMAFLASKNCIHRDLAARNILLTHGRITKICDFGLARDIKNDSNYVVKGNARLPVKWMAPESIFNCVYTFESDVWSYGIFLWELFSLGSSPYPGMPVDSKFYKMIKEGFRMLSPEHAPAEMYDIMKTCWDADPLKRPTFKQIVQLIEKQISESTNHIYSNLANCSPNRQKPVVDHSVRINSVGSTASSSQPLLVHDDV

Row | IC50 [1] [nM] | efflux ratio at 2 h, 1 μM [2] | IC50 [3] [nM] | SMILES
1 | 9.8 | > 50 | 420 | Cn1cc(-c2ccc(CNc3cc(-c4cnc5cc(OCCN6CCn7cnnc7C6)ccn45)ncn3)cc2)cn1 [A203, (6-{7-[2-(5,6-dihydro-8H-[1,2,4]triazolo[4,3-a]pyrazin-7-yl)-ethoxy]-imidazo[1,2-a]pyridin-3-yl}-pyrimidin-4-yl)-[4-(1-methyl-1H-pyrazol-4-yl)-benzyl]-amine]
2 | 12 | 15 to 50 | 170 | Cc1nc2n(n1)CCN(CCOc1ccn3c(-c4cc(NCc5ccc(-c6cnn(C)c6)cc5)ncn4)cnc3c1)C2 [A204, (6-{7-[2-(2-methyl-5,6-dihydro-8H-[1,2,4]triazolo[1,5-a]pyrazin-7-yl)-ethoxy]-imidazo[1,2-a]pyridin-3-yl}-pyrimidin-4-yl)-[4-(1-methyl-1H-pyrazol-4-yl)-benzyl]-amine]
3 | 10 | < 15 | 110 | CN(CC#N)CCOc1ccn2c(-c3cc(NCc4ccc(-c5cnn(C)c5)cc4)ncn3)cnc2c1 [A205, {methyl-[2-(3-{6-[4-(1-methyl-1H-pyrazol-4-yl)-benzylamino]-pyrimidin-4-yl}-imidazo[1,2-a]pyridin-7-yloxy)-ethyl]-amino}-acetonitrile]
4 | 7.1 | < 15 | 100 | Cn1cc(-c2ccc(CNc3cc(-c4cnc5cc(OCCN6CC(C)(C#N)C6)ccn45)ncn3)cc2)cn1 [A206]
5 | 38 | < 15 | 230 | CN(CCOc1ccn2c(-c3cc(NCc4ccc(-c5cnn(C)c5)cc4)ncn3)cnc2c1)CC(F)(F)F [A208, [4-(1-methyl-1H-pyrazol-4-yl)-benzyl]-[6-(7-{2-[methyl-(2,2,2-trifluoro-ethyl)-amino]-ethoxy}-imidazo[1,2-a]pyridin-3-yl)-pyrimidin-4-yl]-amine]
6 | 10 | < 15 | 85 | Cn1cc(-c2ccc(CNc3cc(-c4cnc5cc(OCCN6CCO[C@@H]7COCC[C@@H]76)ccn45)ncn3)cc2)cn1 [A211, (6-{7-[(4aS,8aS)-2-(hexahydro-pyrano[3,4-b][1,4]oxazin-1-yl)-ethoxy]-imidazo[1,2-a]pyridin-3-yl}-pyrimidin-4-yl)-[4-(1-methyl-1H-pyrazol-4-yl)-benzyl]-amine]
7 | 16 | < 15 | 180 | Cc1noc(C2CN(CCOc3ccn4c(-c5cc(NCc6ccc(-c7cnn(C)c7)cc6)ncn5)cnc4c3)C2)n1 [A213, [6-(7-{2-[3-(3-methyl-[1,2,4]oxadiazol-5-yl)-azetidin-1-yl]-ethoxy}-imidazo[1,2-a]pyridin-3-yl)-pyrimidin-4-yl]-[4-(1-methyl-1H-pyrazol-4-yl)-benzyl]-amine]
8 | 21 | < 15 | 180 | Cn1cc(-c2ccc(CNc3cc(-c4cnc5cc(OCCN6CCOC(F)(F)C6)ccn45)ncn3)cc2)cn1 [A214, (6-{7-[2-(2,2-difluoro-morpholin-4-yl)-ethoxy]-imidazo[1,2-a]pyridin-3-yl}-pyrimidin-4-yl)-[4-(1-methyl-1H-pyrazol-4-yl)-benzyl]-amine]
9 | 10 | > 50 | 120 | Cn1cc(-c2ccc(CNc3cc(-c4cnc5cc(OCCN6CC(S(C)(=O)=O)C6)ccn45)ncn3)cc2)cn1 [A215, (6-{7-[2-(3-methanesulfonyl-azetidin-1-yl)-ethoxy]-imidazo[1,2-a]pyridin-3-yl}-pyrimidin-4-yl)-[4-(1-methyl-1H-pyrazol-4-yl)-benzyl]-amine]
10 | 8.2 | < 15 | 130 | Cn1cc(-c2ccc(CNc3cc(-c4cnc5cc(OCCN6CCn7nccc7C6)ccn45)ncn3)cc2)cn1 [A216, (6-{7-[2-(6,7-dihydro-4H-pyrazolo[1,5-a]pyrazin-5-yl)-ethoxy]-imidazo[1,2-a]pyridin-3-yl}-pyrimidin-4-yl)-[4-(1-methyl-1H-pyrazol-4-yl)-benzyl]-amine]
11 | 11 | < 15 | 200 | Cn1cc(-c2ccc(CNc3cc(-c4cnc5cc(OCCN6CCn7cccc7C6)ccn45)ncn3)cc2)cn1 [A218, (6-{7-[2-(3,4-dihydro-1H-pyrrolo[1,2-a]pyrazin-2-yl)-ethoxy]-imidazo[1,2-a]pyridin-3-yl}-pyrimidin-4-yl)-[4-(1-methyl-1H-pyrazol-4-yl)-benzyl]-amine]
12 | 11 | 15 to 50 | 100 | CN1CCN(CCOc2ccn3c(-c4cc(NCc5ccc(-c6cnn(C)c6)cc5)ncn4)cnc3c2)CCC1=O [A219, 4-methyl-1-[2-(3-{6-[4-(1-methyl-1H-pyrazol-4-yl)-benzylamino]-pyrimidin-4-yl}-imidazo[1,2-a]pyridin-7-yloxy)-ethyl]-[1,4]diazepan-5-one]
13 | 11 | < 15 | 140 | COC1(C)CCN(CCOc2ccn3c(-c4cc(NCc5ccc(-c6cnn(C)c6)cc5)ncn4)cnc3c2)CC1 [A220, (6-{7-[2-(4-methoxy-4-methyl-piperidin-1-yl)-ethoxy]-imidazo[1,2-a]pyridin-3-yl}-pyrimidin-4-yl)-[4-(1-methyl-1H-pyrazol-4-yl)-benzyl]-amine]
14 | 14 | > 50 | 400 | Cc1nnc2n1CCN(CCOc1ccn3c(-c4cc(NCc5ccc(-c6cnn(C)c6)cc5)ncn4)cnc3c1)C2 [A221, (6-{7-[2-(3-methyl-5,6-dihydro-8H-[1,2,4]triazolo[4,3-a]pyrazin-7-yl)-ethoxy]-imidazo[1,2-a]pyridin-3-yl}-pyrimidin-4-yl)-[4-(1-methyl-1H-pyrazol-4-yl)-benzyl]-amine]
15 | 17 | < 15 | 93 | Cn1cc(-c2ccc(CNc3cc(-c4cnc5cc(OCCN6CCC(C)(C#N)CC6)ccn45)ncn3)cc2)cn1 [A222, 4-methyl-1-[2-(3-{6-[4-(1-methyl-1H-pyrazol-4-yl)-benzylamino]-pyrimidin-4-yl}-imidazo[1,2-a]pyridin-7-yloxy)-ethyl]-piperidine-4-carbonitrile]
16 | 6.5 | 15 to 50 | 99 | Cn1cc(-c2ccc(CNc3cc(-c4cnc5cc(OCCS(C)(=O)=O)ccn45)ncn3)cc2)cn1 [A224, {6-[7-(2-methanesulfonyl-ethoxy)-imidazo[1,2-a]pyridin-3-yl]-pyrimidin-4-yl}-[4-(1-methyl-1H-pyrazol-4-yl)-benzyl]-amine]
17 | 4.2 | < 15 | 51 | Cn1cc(-c2ccc(CNc3cc(-c4cnc5cc(-c6cnn(C)c6)ccn45)ncn3)cc2)cn1 [A226, 6-[7-(1-methyl-1H-pyrazol-4-yl)imidazo[1,2-a]pyridin-3-yl]-N-{[4-(1-methyl-1H-pyrazol-4-yl)phenyl]methyl}pyrimidin-4-amine]
18 | 24 | < 15 | 63 | Cn1cc(-c2ccc(CNc3cc(-c4cnc5cc(N6CCN(C7COC7)CC6)ccn45)ncn3)cc2)cn1 [A230, [4-(1-methyl-1H-pyrazol-4-yl)-benzyl]-{6-[7-(4-oxetan-3-yl-piperazin-1-yl)-imidazo[1,2-a]pyridin-3-yl]-pyrimidin-4-yl}-amine]
19 | 15 | 15 to 50 | 250 | Cn1ncc(-c2ccc(CNc3cc(-c4cnc5cc(OCCCS(C)(=O)=O)ccn45)ncn3)cc2)n1 [A231, {6-[7-(3-methanesulfonyl-propoxy)-imidazo[1,2-a]pyridin-3-yl]-pyrimidin-4-yl}-[4-(2-methyl-2H-[1,2,3]triazol-4-yl)-benzyl]-amine]
20 | 8.7 | > 50 | 130 | Cn1cc(-c2ccc(CNc3cc(-c4cnc5cc(OCCC6(N)COC6)ccn45)ncn3)cc2)cn1 [A233]
21 | 8.5 | < 15 | 70 | Cn1cc(-c2ccc(CNc3cc(-c4cnc5cc(OCCOCCO)ccn45)ncn3)cc2)cn1 [A234, 2-[2-(3-{6-[4-(1-methyl-1H-pyrazol-4-yl)-benzylamino]-pyrimidin-4-yl}-imidazo[1,2-a]pyridin-7-yloxy)-ethoxy]-ethanol]
22 | 1.5 | < 15 | 74 | Cc1nc(-c2ccc(CNc3cc(-c4cnc5cc(OCCO)ccn45)ncn3)cc2)co1 [A236, 2-(3-{6-[4-(2-methyl-oxazol-4-yl)-benzylamino]-pyrimidin-4-yl}-imidazo[1,2-a]pyridin-7-yloxy)-ethanol]
23 | 6.7 | < 15 | 40 | Cn1cc(-c2ccc(CNc3cc(-c4cnc5cc(OCCCN6CCN(C7CC7)CC6)ccn45)ncn3)cc2)cn1 [A243, (6-{7-[3-(4-cyclopropyl-piperazin-1-yl)-propoxy]-imidazo[1,2-a]pyridin-3-yl}-pyrimidin-4-yl)-[4-(1-methyl-1H-pyrazol-4-yl)-benzyl]-amine]

Row | SMILES | IC50 [1] [nM] | efflux ratio at 2 h, 1 μM [2] | IC50 [3] [nM]
24 | Cn1cc(-c2ccc(CNc3cc(-c4cnc5cc(OCCC(C)(C)N)ccn45)ncn3)cc2)cn1 [A223, {6-[7-(3-amino-3-methyl-butoxy)-imidazo[1,2-a]pyridin-3-yl]-pyrimidin-4-yl}-[4-(1-methyl-1H-pyrazol-4-yl)-benzyl]-amine] | 11 | > 50 | 190
